Measured values taken from patent publication US20150104415A1, “Treatments of Hepatitis C virus infection” (DEBIOPHARM INTERNATIONAL SA, priority 2011, published 2015).

Tested on: HCV GT1
Assay: Randomized, double-blind, placebo-controlled phase II study of DEB025 plus SOC (peg-IFNα2a plus RBV); virologic response by HCV RNA
Format: in vivo, patients
Description: This is an international, multicentre, randomized, double-blind, placebo-controlled, 4-arm, parallel-group phase II study comparing therapy with three doses of DEB025 (600 mg QD, 800 mg QD and 400 mg BID) plus SOC (peg-IFNα2a once weekly plus RBV BID) versus triple therapy with placebo matching DEB025 plus SOC in chronic HCV GT1 patients who were non-responders to prior SOC treatment, or who have relapsed after SOC treatment.
Approximately 344 patients will be randomized into one of 4 treatment arms (A, B, C (C1/C2) and D) in a 1:1:1:1 ratio. C1 and C2 patients will be randomized in a 1:1 ratio within arm C.
The randomization will be stratified by response status to previous treatment (non-responders/relapsers), BMI (<25 kg/m2 or ≧25 kg/m2) and IL28B polymorphism (CC or CT/TT) at screening.
The ratio non-responders and relapsers should be kept at 50% (172 patients) of the study population. An international, multicentre, randomized, double-blind, placebo-controlled, 4-arm, parallel-group phase II study comparing triple therapy with three doses of alisporivir (400 mg, 600 mg or 800 mg)+standard of care (SOC) versus triple therapy with placebo matching alisporivir plus SOC in […] chronic HCV GT1 patients who were non-responders to prior SOC treatment, or relapsers after SOC treatment is provided.
Patients are randomized into one of 4 treatment arms as described below in a 1:1:1:1 ratio. The randomization will be stratified by response status to previous treatment (non-responders/relapsers), BMI (<25 kg/m2 or ≧25 kg/m2) and IL28B polymorphism (CC or CT/TT) at screening. The ratio non-responders and relapsers should be kept at 50% (172 patients) of the study population.
• Alisporivir/Placebo 3 capsules of 200 mg (600 mg) alisporivir 2×/day (BID) orally for 1 week (loading dose) followed by 3 capsules of 200 mg (600 mg) alisporivir once per day (QD) plus 1 capsule of placebo QD for 47 weeks. Only in week 17 (dummy loading) patients receive 3 capsules of 200 mg (600 mg) alisporivir in the morning and 3 capsules of placebo in the evening. • Peg-IFNα2a 180 μg subcutaneously (s.c.) once weekly for 48 weeks • Ribavirin 1000 mg/day (<75 kg) or 1200 mg/day (≧75 kg) orally in two divided doses for 48 weeks
• alisporivir/Placebo 3 capsules of 200 mg (600 mg) alisporivir 2×/day orally for 1 week (loading dose) followed by 4 capsules alisporivir (800 mg) QD for 47 weeks. Only in week 17 (dummy loading) patients receive 3 capsules of 200 mg (600 mg) alisporivir in the morning and 1 capsule of 200 mg alisporivir plus 2 capsules of placebo in the evening. • Peg-IFNα2a 180 μg subcutaneously (s.c.) once weekly for 48 weeks • Ribavirin 1000 mg/day (<75 kg) or 1200 mg/day (≧75 kg) orally in two divided doses for 48 weeks Treatment C1 (will change to active treatment if cEVR not reached=arm C1A) • Placebo 3 capsules of placebo BID orally for 1 week (loading dose) followed by 4 capsules placebo QD for 47 weeks. […]
• Placebo alisporivir 1 capsule of placebo QD (in the morning) orally for 48 weeks 2 capsules of 200 mg (400 mg) alisporivir 2×/day orally for 48 weeks
• 180 μg s.c. once weekly for 48 weeks • Ribavirin 1000 mg/day (<75 kg) or 1200 mg/day (≧75 kg) orally in two divided doses for 48 weeks Treatment C2 (will change to active treatment if cEVR not reached=arm C2A) • DEB025 placebo 3 capsules of placebo orally in the morning and 2 capsules of placebo in the evening for 48 weeks. • Peg-IFNα2a 180 μg s.c. once weekly for 48 weeks • Ribavirin 1000 mg/day (<75 kg) or 1200 mg/day (≧75 kg) orally in two divided doses for 48 weeks
• Placebo 3 capsules of placebo orally as morning dose and 2 capsules of placebo as evening dose for 16 weeks. […]

[1] = Arm A, DEB 600 QD plus peg-IFNα2a/RBV, N = 81
[2] = Arm B, DEB 800 QD plus peg-IFNα2a/RBV, N = 84
[3] = Arm D, DEB 400 BID plus peg-IFNα2a/RBV, N = 78
[4] = DEB 400 BID arm plus SOC, Week 12

Structure (SMILES): C/C=C/C[C@@H](C)[C@@H](O)[C@H]1C(=O)N[C@@H](CC)C(=O)N(C)[C@H](C)C(=O)N(CC)[C@@H](C(C)C)C(=O)N[C@@H](C(C)C)C(=O)N(C)[C@@H](CC(C)C)C(=O)N[C@@H](C)C(=O)N[C@H](C)C(=O)N(C)[C@@H](CC(C)C)C(=O)N(C)[C@@H](CC(C)C)C(=O)N(C)[C@@H](C(C)C)C(=O)N1C [DEB025, alisporivir]
- RVR (rapid virologic response): patients with HCV RNA < LOQ (25 IU/mL) after 4 weeks of treatment (Arm A, DEB 600 QD (600 mg BID 1 week loading) plus peg-IFNα2a/RBV, N = 81, GT1 relapsers/non-responders): 19 (23.5) n (%)
- EVR: HCV RNA decrease >= 2 log10 from baseline or < LOQ (25 IU/mL) after 12 weeks [1]: 64 (79.0) n (%)
- cEVR (complete early virologic response, primary endpoint): HCV RNA < LOQ (25 IU/mL) after 12 weeks [1]: 36 (44.4) n (%)
- pEVR (partial early virologic response): HCV RNA decrease >= 2 log10 from baseline and > LOQ (25 IU/mL) after 12 weeks [1]: 28 (34.6) n (%)
- RVR (rapid virologic response): patients with HCV RNA < LOQ (25 IU/mL) after 4 weeks of treatment (Arm B, DEB 800 QD (600 mg BID 1 week loading) plus peg-IFNα2a/RBV, N = 84): 18 (21.4) n (%)
- EVR: HCV RNA decrease >= 2 log10 from baseline or < LOQ (25 IU/mL) after 12 weeks [2]: 72 (85.7) n (%)
- cEVR (complete early virologic response, primary endpoint): HCV RNA < LOQ (25 IU/mL) after 12 weeks [2]: 48 (57.1) n (%)
- pEVR (partial early virologic response): HCV RNA decrease >= 2 log10 from baseline and > LOQ (25 IU/mL) after 12 weeks [2]: 24 (28.6) n (%)
- EVR: HCV RNA decrease >= 2 log10 from baseline or < LOQ (25 IU/mL) after 12 weeks [3]: 63 (80.8) n (%)
- RVR (rapid virologic response): patients with HCV RNA < LOQ (25 IU/mL) after 4 weeks of treatment [3]: 29 (37.2) n (%)
- cEVR (complete early virologic response, primary endpoint): HCV RNA < LOQ (25 IU/mL) after 12 weeks [3]: 55 (70.5) n (%)
- pEVR (partial early virologic response): HCV RNA decrease >= 2 log10 from baseline and > LOQ (25 IU/mL) after 12 weeks [3]: 8 (10.3) n (%)
- proportion achieving RVR (DEB 400 BID arm plus SOC, Week 4): 37.2%
- proportion achieving EVR [4]: 80.8%
- proportion achieving cEVR [4]: 70.5%
- patients achieved RVR (Week 4, all the DEB025 treatment arms (600 QD, 800 QD, 400 BID) plus SOC): > 20%
- patients achieved EVR (Week 12, all the DEB025 treatment arms (600 QD, 800 QD, 400 BID) plus SOC): ≥ 79%
